Patent publication US20170081357A1, “[…] ACTIVE 17-NITROGEN SUBSTITUTED ESTRATREINTHIAZOLE DERIVATIVES AS INHIBITORS OF 17.BETA-HYDROXYSTEROID DEHYDROGENASE” (FORENDO PHARMA LTD, priority 2013, published 2017)

Experiments:
[1] = biological target: T1, recombinant human 17β-HSD1 (Homo sapiens, UniProt P14061); assay: Inhibition of recombinant human 17β-HSD1 (conversion of 3H-estrone to estradiol, HPLC); assay type: biochemical; conditions: inhibitor 1 μM; 30 nM estrone, 1 mM NADPH, 30 min at RT; read-out: 17β-HDS1 Inhibition % at 1 μM
T1 construct: made in house; host or cells: Sd9 (Sf9) insect cells, baculovirus (Bac to Bac Expression System); microsomal fraction
T1 sequence (P14061 1-328): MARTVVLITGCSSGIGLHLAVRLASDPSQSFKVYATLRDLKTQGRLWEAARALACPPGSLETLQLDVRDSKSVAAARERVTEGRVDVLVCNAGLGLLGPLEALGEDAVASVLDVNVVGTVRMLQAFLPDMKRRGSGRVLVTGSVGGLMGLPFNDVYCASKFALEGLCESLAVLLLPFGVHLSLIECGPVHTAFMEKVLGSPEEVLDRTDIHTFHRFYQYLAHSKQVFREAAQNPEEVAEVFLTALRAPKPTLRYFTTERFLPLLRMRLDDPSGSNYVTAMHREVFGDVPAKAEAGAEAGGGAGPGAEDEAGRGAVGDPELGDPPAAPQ
Summary of the method: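 Microsomal recombinant human 17β-HSD1 (1 μg/ml) from insect cells incubated 30 min at RT in 20 mM KH2PO4 pH 7.4 with 30 nM 3H-estrone, 1 mM NADPH and inhibitor at 1 μM or 0.1 μM (1% DMSO). Estrone/estradiol separated by reverse-phase HPLC with radioactivity flow detection; % inhibition = 100 − % conversion.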

[2] = biological target: T2, recombinant human 17β-HSD2 (Homo sapiens, UniProt P37059); assay: Inhibition of recombinant human 17β-HSD2 (conversion of 3H-estradiol to estrone, HPLC); assay type: biochemical; conditions: inhibitor 1 μM; 50 nM estradiol, 1 mM NADH, 30 min at RT
T2 construct: made in house; host or cells: Sd9 (Sf9) insect cells, baculovirus (Bac to Bac Expression System); fractionated cell extract
T2 sequence (P37059 1-387): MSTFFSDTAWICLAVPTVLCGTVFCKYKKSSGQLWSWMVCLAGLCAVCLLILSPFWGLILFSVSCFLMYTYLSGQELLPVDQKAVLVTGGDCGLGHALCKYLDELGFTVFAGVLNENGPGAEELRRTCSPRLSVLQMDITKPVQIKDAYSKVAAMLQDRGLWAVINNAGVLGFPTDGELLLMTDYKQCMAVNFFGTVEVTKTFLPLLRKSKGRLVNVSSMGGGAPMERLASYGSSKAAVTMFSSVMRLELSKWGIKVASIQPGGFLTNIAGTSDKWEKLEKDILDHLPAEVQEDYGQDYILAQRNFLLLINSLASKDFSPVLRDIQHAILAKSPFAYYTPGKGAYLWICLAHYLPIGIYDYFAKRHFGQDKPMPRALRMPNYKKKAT
Summary of the method: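 Baculovirus/Sf9-expressed enzyme in detergent-solubilised membrane extract, 4 μg/ml, incubated 30 min at RT in 20 mM KH2PO4 pH 8.5 with 50 nM estradiol (³H-tracer) and 1 mM NADH; inhibitor at 1 μM or 0.1 μM, 1% DMSO final. TCA-stopped; estrone/estradiol separated by reverse-phase HPLC with flow scintillation; % inhibition = 100 − % conversion.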

[3] = Metabolic stability assay, human liver microsome and homogenate incubations; assay type: in vitro ADME; conditions: human liver homogenate or microsomes, LC/PDA/TOF-MS
Method: The in vitro metabolic stability of the compounds of the invention was determined for exemplified compounds using human liver microsome and homogenate incubations. The incubation time points used with or without appropriate cofactors were 0 min and 60 min. Samples were collected at both time points and substrates were detected using LC/PDA/TOF-MS. In vitro metabolic stability (% remaining after 60 min in human liver homogenate or microsomes) of the compounds were calculated and the results are summarized in Table 3.

Cc1cnc(NC(=O)CC[C@@H]2c3c[nH]nc3[C@@]3(C)CCC4c5cc([N+](=O)[O-])c(O)cc5CCC4C23)s1 (stereo partly drawn) [Compound 55, 3-((6aS,10S)-2-Hydroxy-6a-methyl-2-nitro-4b,5,6,6a,8,10,10a,10b,11,12-decehydro-7,8-diaza-pentaleno[2,1-1]phenanthren-10-yl}-N-(5-methylthiazol-2-yl)propanamide]
inhibition at 1 µM [1]: 69%
inhibition at 1 µM [2]: 7%
In vitro metabolic stability, % remaining after 60 min [3]: 86%
